What was measured:
EGFR kinase = EGFR kinase (Homo sapiens (Human), UniProt P00533); assay: EGFR kinase assay; type: biochemical
Procedure: Inhibition of EGFR kinase activity by compounds disclosed herein is quantified by measuring the amount of [^33P] incorporated into the substrate in the presence of a test compound. Briefly, a reaction mixture of 25 μL final volume containing 25 ng of EGFR kinase (EGFR kinase domain alone, Millipore), 3 μg of the substrate [poly(Glu-Tyr), Sigma], kinase reaction buffer (10 mM MOPS pH 7.0, 0.3 mM EDTA, 0.5% glycerol, 0.001% Brij-35, 10 mM MnCl2, 0.1 mg/ml BSA, 100 μM ATP, 0.1 μCi per well [^33P]-γ-ATP (2,500-3,000 Ci/mmol)), and a test compound (100 nM, diluted with 4% DMSO) or DMSO (as the control) was incubated at 30° C. for 30 minutes. The reaction was stopped by adding 5 μL of 3% phosphoric acid solution. The resultant reaction solution was then harvested onto a filter plate (UniFilter-96 GF/B, PerkinElmer), washed 20 times for 5 min with d.d. H2O, and followed by the addition of 30 μL of MicroScint™-20 Cocktail (PerkinElmer). The radioactivity retained on the filter membrane was measured by TopCount™ scintillation detector (PerkinElmer). The results were analyzed by using linear regression software (GraphPad Prism™ 4; GraphPad Software Inc.). IC50 value is defined as the concentration of the test compound which achieves a half-maximal inhibition of the kinase activity.

MDA-MB-231 = assay: Anti-proliferative activity, CellTiter-96 assay, MDA-MB-231; type: cell-based; conditions: Homo sapiens, MDA-MB-231 cells, 72 hours incubation
How it was run: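 Cells in DMEM with 10% FCS at 37° C., 5% CO2, plated at 2000 cells/well for 24 h, then exposed to graded compound concentrations for 72 h. CellTiter-96 Aqueous One reagent added for 4.0 h; viability read as absorbance at 490 nm.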

A375 tumor cells = assay: In vivo anti-cancer activity, subcutaneous A375 tumor in NOD/SCID mice; conditions: A375 xenograft, 50 mg/kg i.p. qd x 28
Procedure: (§1) In Vivo Anti-Cancer Activities
(§2) A375 (1×10^6 cell/mouse) tumor cells were subcutaneously injected into the right flank of 5 week old male NOD/SCID mice (BioLASCO, Taiwan). Tumor volume was measured with a digital caliper once tumor was palpable (within 10 to 15 days after implantation). Compound treatment was started after 1-3 weeks when the tumors had reached an average volume of ˜50 to 100 mm^3. Mice were divided into 5 groups as listed in Table 6 below and were given intraperitoneal injections with the test compound at 50 mg/kg, or vehicle control (DMSO:Cremophor:PBS (pH 7.4)=[…]) one time every day. The test compound, 58, was formulated in a solution of 5% DMSO, 10% Cremophor, and 85% PBS. The positive control, PLX4032, was dissolved in 100% PBS. Body weights of the mice were measured every two to three days and the tumor sizes in different groups of mice were measured by digital caliper every two to three days.

[1] = Body weight of A375 tumor-bearing NOD/SCID mice under treatment; type: in vivo; conditions: A375 xenograft, 50 mg/kg i.p. qd x 28
Procedure: as §1, §2

Sequence of EGFR kinase (P00533 712-979): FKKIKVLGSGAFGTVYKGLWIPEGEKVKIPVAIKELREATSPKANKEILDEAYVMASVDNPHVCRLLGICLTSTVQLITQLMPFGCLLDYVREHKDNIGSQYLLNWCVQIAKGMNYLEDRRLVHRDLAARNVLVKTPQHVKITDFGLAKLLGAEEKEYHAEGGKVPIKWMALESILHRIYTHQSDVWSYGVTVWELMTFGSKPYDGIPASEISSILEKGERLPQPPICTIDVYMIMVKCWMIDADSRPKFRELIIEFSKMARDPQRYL

IC50 (EGFR kinase)	IC50 (MDA-MB-231)	Compound	tumor growth in vivo (A375 tumor cells)	weight loss [1]
18.7 nM	1500 ± 100 nM	COc1cc(-c2ccc3ncnc(Nc4cccc(O)c4)c3c2)ccc1O [Compound 8, 4-(4-(3-hydroxyphenylamino)quinazolin-6-yl)-2-methoxyphenol]	–	–
14.9 nM	800 ± 300 nM	COc1cc(-c2ccc3ncnc(Nc4cc(O)ccc4F)c3c2)ccc1O [Compound 58, 4-(4-(2-fluoro-5-hydroxyphenylamino)quinazolin-6-yl)-2-methoxyphenol]	inhibited tumor growth in vivo	without inducing significant weight loss

From patent US8785459B2, “Quinazoline compounds as kinase inhibitors” (Development Center for Biotechnology, priority 2011, dated 2014)
